The values below come from US10053468B2, “Heterocyclic compound” (TAKEDA PHARMACEUTICAL COMPANY LIMITED, priority 2013, dated 2018).

Assay [1] concerns the target T1, RORγt (Homo sapiens, UniProt P51449).
T1 sequence (P51449 1-497 isoform P51449-2): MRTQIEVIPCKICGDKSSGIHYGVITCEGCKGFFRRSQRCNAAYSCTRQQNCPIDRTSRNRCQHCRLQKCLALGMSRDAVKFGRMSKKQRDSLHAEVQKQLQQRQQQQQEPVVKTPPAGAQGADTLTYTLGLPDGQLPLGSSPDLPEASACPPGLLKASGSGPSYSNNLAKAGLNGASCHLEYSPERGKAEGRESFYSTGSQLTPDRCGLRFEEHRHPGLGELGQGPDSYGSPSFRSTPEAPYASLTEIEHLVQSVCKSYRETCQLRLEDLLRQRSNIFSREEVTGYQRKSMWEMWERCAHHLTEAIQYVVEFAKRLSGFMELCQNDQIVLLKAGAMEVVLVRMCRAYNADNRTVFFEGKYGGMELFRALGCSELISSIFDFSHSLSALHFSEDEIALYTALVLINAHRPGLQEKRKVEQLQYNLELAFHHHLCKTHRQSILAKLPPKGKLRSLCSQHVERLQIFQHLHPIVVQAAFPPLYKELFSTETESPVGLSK
The assay is described as follows: Jurkat reporter test (human IL-17 ROR response element luciferase, RORγt vector). As to conditions: read-out: Luminescence level inhibitory rate at test compound 3 μM (%). The format is cell-based. The procedure, abridged:
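Jurkat cells were electroporated (1350 V, 10 ms, 3 pulses) with reporter constructs, then cultured overnight with compound in RPMI containing 10% lipid-reduced FCS, 10 mM HEPES pH 7.5 and 5 μM lovastatin. Luciferase was quantified by Bright-Glo luminescence after 10 min at room temperature.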

Assay [2] concerns the target T1, RORγt. The experiment in a line: Cofactor recruitment test (Alpha Screen, biotinylated SRC-1 peptide). Format: biochemical. As to conditions: read-out: Signal value inhibitory rate at test compound 1 μM (%). The procedure: Cofactor Recruitment Test
Cofactor recruitment test was performed by Alpha Screen (Histidine Detection Kit, PerkinElmer) method. First, a test compound was diluted with an assay buffer (50 mM Tris-HCl (pH 7.5), 50 mM KCl, 1 mM DTT, 0.1% BSA) and added to a 384 well plate by 5 μL. […] The mixture was stood in a dark place for 1 hr, and the signal value was measured by Envision (PerkinElmer).

In assay [3] the target is T1, RORγt. The assay is described as follows: RORγt binding test using fluorescent-labeled cholesterol (TR-FRET). As to conditions: read-out: Binding inhibitory rate of fluorescent-labeled cholesterol to RORγt at test compound 1 μM (%). The procedure, abridged: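 TR-FRET displacement with His-tagged RORγt, BODIPY-cholesterol and Tb-anti-His antibody in Tris-HCl pH 7.5, 100 mM NaCl, 1 mM DTT, 0.1% BSA. Compound, RORγt and labelled cholesterol were incubated 20 min at RT, then antibody was added for another 20 min.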
(In general: TR-FRET usually uses a lanthanide donor and a delayed reading to cut background.)

Assay [4] concerns the target T1, RORγt. The assay is described as follows: RORγt binding test using fluorescent-labeled synthetic ligand (TR-FRET). As to conditions: read-out: Binding inhibitory rate of fluorescent-labeled synthetic ligand to RORγt at test compound 1 μM (%). The procedure:
RORγt Binding Test Using Fluorescent-labeled Synthetic Ligand
The binding activity of the test compound to RORγt was measured by a time resolved fluorescence resonance energy transfer method (TR-FRET) utilizing histidine-tagged RORγt, fluorescent-labeled synthetic ligand, and terbium-labeled anti-histidine tag antibody (Invitrogen). First, a test compound diluted with an assay buffer (20 mM Tris-HCl (pH 7.5), 100 mM NaCl, 1 mM DTT, 0.1% BSA) was added to a 384 well plate by 3 μL. Then, RORγt diluted with an assay buffer to 240 nM was added by 3 μL, after which fluorescent-labeled synthetic ligand diluted with the assay buffer to 12 μM was added by 3 μL, and the mixture was stood at room temperature for 20 min. Thereafter, a terbium-labeled anti-histidine tag antibody diluted with the assay buffer to 8 nM was added by 3 μL. The mixture was stood at room temperature for 20 min, and fluorescence intensity (excitation wavelength 320 nm, fluorescence wavelength 520 nm, delay time 100 microseconds) was measured by Envision (PerkinElmer).

The mark [5] stands for this setting: test compound 3 μM, Jurkat cells.

Structures are written as SMILES. Like-named read-outs stand apart in the source and are kept apart here.

For `COc1ccc2c(c1)CCN(C(=O)Cc1cc(O)no1)[C@H]2C(=O)Nc1cc(F)c(C(C)(C)C)c(F)c1` [Example 43, (1R)-N-(4-tert-butyl-3,5-difluorophenyl)-2-((3-hydroxy-1,2-oxazol-5-yl)acetyl)-6-methoxy-1,2,3,4-tetrahydroisoquinoline-1-carboxamide], the inhibition at 3 µM at RORγt [1] (setting [5]) amounted to 101%. In addition, the inhibition at 1 µM is 88.3% on RORγt [2], 102% at RORγt [3] and 102% at RORγt [4].

On to `COc1ccc2c(c1)CCN(C(=O)Cc1cc(O)no1)[C@H]2C(=O)Nc1cc(F)c2c(c1)CCC2(C)C` [Example 45, (1R)-N-(7-fluoro-1,1-dimethyl-2,3-dihydro-1H-inden-5-yl)-2-((3-hydroxy-1,2-oxazol-5-yl)acetyl)-6-methoxy-1,2,3,4-tetrahydroisoquinoline-1-carboxamide], for which, at RORγt [1] (setting [5]), the inhibition at 3 µM turned out to be 99.6%. Moreover, the inhibition at 1 µM was found to be 76.9% at RORγt [2], 103% at RORγt [3] and 102% on RORγt [4].

For `COc1ccc2c(c1)OCCN(C(=O)Cc1cc(O)no1)[C@H]2C(=O)Nc1cc(F)c([Si](C)(C)C)c(F)c1` [Example 56, (5R)-N-(3,5-difluoro-4-(trimethylsilyl)phenyl)-4-((3-hydroxy-1,2-oxazol-5-yl)acetyl)-8-methoxy-2,3,4,5-tetrahydro-1,4-benzoxazepine-5-carboxamide], the inhibition at 3 µM on RORγt [1] (Jurkat) came to 99.9%. Besides, the inhibition at 1 µM on RORγt [2] stood at 61.3%; at RORγt [3], 101%; at RORγt [4], 102%.

For the molecule `COc1ccc2c(c1)CCN(C(=O)CCc1cc(O)no1)[C@H]2C(=O)Nc1cc(F)c2c(c1)CCC2(C)C` [Example 63, (1R)-N-(7-fluoro-1,1-dimethyl-2,3-dihydro-1H-inden-5-yl)-2-(3-(3-hydroxy-1,2-oxazol-5-yl)propanoyl)-6-methoxy-1,2,3,4-tetrahydroisoquinoline-1-carboxamide], on RORγt [1] (setting [5]), the inhibition at 3 µM is 99.9%. For the same molecule, the inhibition at 1 µM at RORγt [2] came to 70%; on RORγt [3] it was 100%; on RORγt [4], 102%.

Turning to `COc1ccc2c(c1)CCN(C(=O)Cc1cc(O)no1)[C@H]2C(=O)Nc1ccc(C(C)(C)C)c(C#N)c1` [Example 65, (1R)-N-(4-tert-butyl-3-cyanophenyl)-2-((3-hydroxy-1,2-oxazol-5-yl)acetyl)-6-methoxy-1,2,3,4-tetrahydroisoquinoline-1-carboxamide], the inhibition at 3 µM on RORγt [1] (setting [5]) was 100%. The inhibition at 1 µM was 98% at RORγt [2], 102% on RORγt [3] and 101% on RORγt [4].

For `CCOc1ccc2c(c1)CCN(C(=O)Cc1cc(O)no1)[C@H]2C(=O)Nc1cc(F)c2c(c1)CCC2(C)C` [Example 66, (1R)-6-ethoxy-N-(7-fluoro-1,1-dimethyl-2,3-dihydro-1H-inden-5-yl)-2-((3-hydroxy-1,2-oxazol-5-yl)acetyl)-1,2,3,4-tetrahydroisoquinoline-1-carboxamide], the inhibition at 3 µM at RORγt [1] (setting [5]) amounted to 99.5%. For the same molecule, the inhibition at 1 µM turned out to be 82% on RORγt [2], 102% at RORγt [3] and 102% at RORγt [4].

`CCOc1ccc2c(c1)CCN(C(=O)Cc1cc(O)no1)[C@H]2C(=O)Nc1ccc(C(C)(C)C)c(F)c1` [Example 67, (1R)-N-(4-tert-butyl-3-fluorophenyl)-6-ethoxy-2-((3-hydroxy-1,2-oxazol-5-yl)acetyl)-1,2,3,4-tetrahydroisoquinoline-1-carboxamide]: the inhibition at 3 µM at RORγt [1] (setting [5]) was determined as 100%. Also, the inhibition at 1 µM was 87% at RORγt [2], 103% on RORγt [3] and 102% on RORγt [4].

As for `COCC(C)(C)c1ccc(NC(=O)[C@H]2c3ccc(OC)cc3CCN2C(=O)c2cc(O)no2)cc1F` [Example 69, (1R)-N-(3-fluoro-4-(1-methoxy-2-methylpropan-2-yl)phenyl)-2-((3-hydroxy-1,2-oxazol-5-yl)carbonyl)-6-methoxy-1,2,3,4-tetrahydroisoquinoline-1-carboxamide], the inhibition at 3 µM at RORγt [1] (setting [5]) was found to be 100%. In addition, the inhibition at 1 µM at RORγt [2] was 83%; on RORγt [3], 102%; at RORγt [4], 101%.

As to `COCC(C)(C)c1ccc(NC(=O)[C@H]2c3ccc(OC)cc3CCN2C(=O)Cc2cc(O)no2)cc1F` [Example 70, (1R)-N-(3-fluoro-4-(1-methoxy-2-methylpropan-2-yl)phenyl)-2-((3-hydroxy-1,2-oxazol-5-yl)acetyl)-6-methoxy-1,2,3,4-tetrahydroisoquinoline-1-carboxamide], the inhibition at 3 µM on RORγt [1] (setting [5]) worked out at 99%. For the same molecule, the inhibition at 1 µM amounted to 82% on RORγt [2], 102% at RORγt [3] and 102% on RORγt [4].

As for `COc1ccc2c(c1)CCN(C(=O)Cc1cc(O)no1)[C@H]2C(=O)Nc1ccc([Si](C)(C)C)c(C#N)c1` [Example 72, (1R)-N-(3-cyano-4-(trimethylsilyl)phenyl)-2-((3-hydroxy-1,2-oxazol-5-yl)acetyl)-6-methoxy-1,2,3,4-tetrahydroisoquinoline-1-carboxamide], the inhibition at 3 µM on RORγt [1] (Jurkat) was 100%. Besides, the inhibition at 1 µM was found to be 94% at RORγt [2], 104% on RORγt [3] and 102% at RORγt [4].

As to `COc1ccc2c(c1)CCN(C(=O)Cc1cc(O)no1)[C@H]2C(=O)Nc1ccc([Si](C)(C)C)c(F)c1` [Example 73, (1R)-N-(3-fluoro-4-(trimethylsilyl)phenyl)-2-((3-hydroxy-1,2-oxazol-5-yl)acetyl)-6-methoxy-1,2,3,4-tetrahydroisoquinoline-1-carboxamide], the inhibition at 3 µM at RORγt [1] (Jurkat) is 100%. The values for the inhibition at 1 µM on RORγt [2], at RORγt [3] and on RORγt [4] were 90%, 102% and 102%, respectively.

`COc1ccc2c(c1)CCN(C(=O)c1cc(O)no1)[C@H]2C(=O)Nc1ccc(C(C)(C)COCC(F)F)c(F)c1` [Example 75, (1R)-N-(4-(1-(2,2-difluoroethoxy)-2-methylpropan-2-yl)-3-fluorophenyl)-2-((3-hydroxy-1,2-oxazol-5-yl)carbonyl)-6-methoxy-1,2,3,4-tetrahydroisoquinoline-1-carboxamide]: the inhibition at 3 µM at RORγt [1] (setting [5]) worked out at 96%. In addition, the inhibition at 1 µM on RORγt [2] came to 78%; on RORγt [3], 101%; at RORγt [4] it was 102%.

Regarding `COc1ccc2c(n1)CCN(C(=O)Cc1cc(O)no1)[C@H]2C(=O)Nc1ccc(C(C)(C)C)c(F)c1` [Example 78, (5R)-N-(4-tert-butyl-3-fluorophenyl)-6-((3-hydroxy-1,2-oxazol-5-yl)acetyl)-2-methoxy-5,6,7,8-tetrahydro-1,6-naphthyridine-5-carboxamide], the inhibition at 3 µM on RORγt [1] (setting [5]) worked out at 101%. Further, the inhibition at 1 µM was 89% on RORγt [2], 101% on RORγt [3] and 102% on RORγt [4].

As to `COc1ccc2c(n1)CCN(C(=O)c1cc(O)no1)[C@H]2C(=O)Nc1ccc([Si](C)(C)C)c(F)c1` [Example 79, (5R)-N-(3-fluoro-4-(trimethylsilyl)phenyl)-6-((3-hydroxy-1,2-oxazol-5-yl)carbonyl)-2-methoxy-5,6,7,8-tetrahydro-1,6-naphthyridine-5-carboxamide], the inhibition at 3 µM on RORγt [1] (Jurkat) is 102%. The inhibition at 1 µM came to 97% on RORγt [2], 102% on RORγt [3] and 102% at RORγt [4].
